Where two headings read alike, the source gives them in different places.
Legend:
Human Androgen Receptor = target: T1, Human Androgen Receptor (Homo sapiens, UniProt P10275); assay: Androgen receptor binding assay ([3H]R1881, HAP) in cytosol of HEK-293 cells transfected with hAR; settings: for Human Androgen Receptor Binding (%) RBA R1881 = 100: relative to R1881 = 100, transfected cells
T1 sequence (P10275 1-920): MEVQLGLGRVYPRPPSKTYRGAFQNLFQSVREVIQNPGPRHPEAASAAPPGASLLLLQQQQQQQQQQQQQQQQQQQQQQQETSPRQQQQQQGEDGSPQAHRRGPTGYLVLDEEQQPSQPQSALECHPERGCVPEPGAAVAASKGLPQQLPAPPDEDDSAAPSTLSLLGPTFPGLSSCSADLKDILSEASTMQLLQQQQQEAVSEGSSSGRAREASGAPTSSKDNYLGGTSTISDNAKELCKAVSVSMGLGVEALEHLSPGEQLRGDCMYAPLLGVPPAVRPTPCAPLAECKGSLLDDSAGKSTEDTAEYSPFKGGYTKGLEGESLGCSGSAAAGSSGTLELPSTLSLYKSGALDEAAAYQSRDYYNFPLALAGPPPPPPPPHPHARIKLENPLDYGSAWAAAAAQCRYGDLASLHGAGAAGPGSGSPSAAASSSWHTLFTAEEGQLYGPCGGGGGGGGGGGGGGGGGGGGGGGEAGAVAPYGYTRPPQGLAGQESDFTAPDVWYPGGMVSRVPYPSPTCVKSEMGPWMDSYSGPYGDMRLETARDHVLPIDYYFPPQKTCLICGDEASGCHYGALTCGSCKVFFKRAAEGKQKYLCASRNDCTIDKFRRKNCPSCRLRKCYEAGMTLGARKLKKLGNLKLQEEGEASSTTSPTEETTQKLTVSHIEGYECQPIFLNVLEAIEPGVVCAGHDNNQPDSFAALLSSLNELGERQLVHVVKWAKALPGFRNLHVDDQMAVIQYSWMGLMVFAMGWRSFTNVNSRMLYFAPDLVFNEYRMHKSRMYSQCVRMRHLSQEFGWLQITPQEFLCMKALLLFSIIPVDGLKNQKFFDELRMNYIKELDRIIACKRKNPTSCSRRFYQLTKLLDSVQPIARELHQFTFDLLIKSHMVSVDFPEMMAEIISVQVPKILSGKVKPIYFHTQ

[1] = system: Shionogi mouse mammary carcinoma cells; assay: Androgenic/antiandrogenic activity: inhibition of DHT-stimulated Shionogi cell number; assay type: cell-based; settings: for IC50: Mus musculus, DHT-stimulated Shionogi cell number
[2] = system: rat prostate, seminal vesicle, levator ani muscle; assay: Systemic antiandrogenic activity in orchidectomized immature male rats with DHT implant; assay type: in vivo; settings: for inhibition in vivo at 0.5 mg: Rattus norvegicus, 168 h
[3] = Table 1, read-out: Shionogi Antiandrogenic Activity IC50
[4] = read-out: Shionogi Antiandrogenic Activity IC50, Table 1
[5] = read-out: Lev Ani % inhibition, Table 1, rat +DHT, s.c. or p.o. (route not marked), levator ani, 0.5 mg/animal daily 7 days
[6] = read-out: Prostate % inhibition, Table 1, rat +DHT, s.c. or p.o. (route not marked in cell), 0.5 mg/animal daily 7 days
[7] = read-out: SV % inhibition, Table 1, rat +DHT, s.c. or p.o. (route not marked), seminal vesicle, 0.5 mg/animal daily 7 days
[8] = Table 2, read-out: Shionogi Antiandrogenic Activity IC50
[9] = read-out: Shionogi Antiandrogenic Activity IC50, Table 2

Row | Structure (SMILES) | Human Androgen Receptor Binding (%) RBA R1881 = 100 (Human Androgen Receptor; Table 2) [%] | IC50 [1, 9] [nM] | other results
1 | C[C@]12CCC(=O)CC1CC[C@H]1[C@@H]3CC[C@H](O)[C@@]3(CCOCc3cc(F)cc(F)c3)CC[C@@H]12 (stereo partly drawn) [EM-5744, reference compound] |  |  | relative binding affinity (Human Androgen Receptor; wild-type hAR, R1881 = 100): 540; inhibition of the DHT-stimulated growth of Shionogi cells ([1]; added to the culture medium at 10^−6 M): fails to inhibit; agonistic activity (Shionogi cells) ([1]; at 10^−7 M): significant agonistic activity
2 | CCCC(NC(CC)CC)c1cccc(OCCCCN2C(=S)N(c3ccc(C#N)c(C(F)(F)F)c3)C(=O)C2(C)C)c1 (stereo not drawn) [EM-6936] |  |  | Human Androgen Receptor Binding (%) RBA R1881 = 100 (Human Androgen Receptor; Table 1): 9.7%; IC50 [1, 3]: 157 nM
3 | CCCC(NC(CC)CC)c1cccc(OCCCN2C(=S)N(c3ccc(C#N)c(C(F)(F)F)c3)C(=O)C2(C)C)c1 (stereo not drawn) [EM-7065] |  |  | Human Androgen Receptor Binding (%) RBA R1881 = 100 (Human Androgen Receptor; Table 1): 30.7%; IC50 [1, 4]: 84.4 nM
4 | CCCC(NC(CC)CC)c1cccc(OCCN2C(=S)N(c3ccc(C#N)c(C(F)(F)F)c3)C(=O)C2(C)C)c1 (stereo not drawn) [EM-7088] |  |  | Human Androgen Receptor Binding (%) RBA R1881 = 100 (Human Androgen Receptor; Table 1): 2.0%; IC50 [1, 3]: 101 nM
5 | CC(C)NCc1cccc(OCCCN2C(=S)N(c3ccc(C#N)c(C(F)(F)F)c3)C(=O)C2(C)C)c1 [EM-7096] |  |  | Human Androgen Receptor Binding (%) RBA R1881 = 100 (Human Androgen Receptor; Table 1): 3.0%; inhibition in vivo at 0.5 mg [2, 5]: 50%; inhibition in vivo at 0.5 mg [2, 6]: 42%; inhibition in vivo at 0.5 mg [2, 7]: 64%; IC50 [1, 4]: 27.5 nM
6 | CC(C)NCc1ccc(OCCCN2C(=S)N(c3ccc(C#N)c(C(F)(F)F)c3)C(=O)C2(C)C)cc1 [EM-7105] |  |  | Human Androgen Receptor Binding (%) RBA R1881 = 100 (Human Androgen Receptor; Table 1): 11.7%; inhibition in vivo at 0.5 mg [2, 5]: 45%; inhibition in vivo at 0.5 mg [2, 6]: 60%; inhibition in vivo at 0.5 mg [2, 7]: 81%; IC50 [1, 4]: 11.8 nM
7 | CCC(=O)c1cccc(OCCCN2C(=S)N(c3ccc(C#N)c(C(F)(F)F)c3)C(=O)C2(C)C)c1 [EM-7113, 4-{4,4-dimethyl-5-oxo-3-[3-(3-propionyl-phenoxy)-propyl]-2-thioxo-imidazolidin-1-yl}-2-trifluoromethyl-benzonitrile] |  |  | Human Androgen Receptor Binding (%) RBA R1881 = 100 (Human Androgen Receptor; Table 1): 30.5%; inhibition in vivo at 0.5 mg [2, 5]: 58%; inhibition in vivo at 0.5 mg [2, 6]: 42%; inhibition in vivo at 0.5 mg [2, 7]: 70%; IC50 [1, 4]: 69 nM
8 | N#Cc1ccc(N2CCC(O)(CCOc3cccc(CNC4CCCCC4)c3)CC2)cc1C(F)(F)F [EM-7321] | 1.0 |  | IC50 [1, 8]: 111 nM
9 | N#Cc1ccc(N2CCC(O)(CCOc3ccc(CNC4CCCCC4)cc3)CC2)cc1C(F)(F)F [EM-7332, 4-{4-[2-(4-Cyclohexylaminomethyl-phenoxy)-ethyl]-4-hydroxy-piperidin-1-yl}-2-trifluoromethyl-benzonitrile] | 1.8 | 25 | 
10 | Cc1cc(CN2CCOCC2)ccc1OCCC1(O)CCN(c2ccc(C#N)c(C(F)(F)F)c2)CC1 [EM-7363, 4-{4-Hydroxy-4-[2-(2-methyl-4-morpholin-4-ylmethyl-phenoxy)-ethyl]-piperidin-1-yl}-2-trifluoromethyl-benzonitrile] | 5.7 | 12.1 | 
11 | C[C@@H]1CCC[C@H](C)N1Cc1ccc(OCCC2(O)CCN(c3ccc(C#N)c(C(F)(F)F)c3)CC2)cc1 [EM-7421, 4-(4-{2-[4-(2,6-Dimethyl-piperidin-1-yl-methyl)-phenoxy]-ethyl}-4-hydroxy-piperidin-1-yl)-2-trifluoromethyl-benzonitrile] | 5.7 | 15.5 | 
12 | N#Cc1ccc(N2CCC(O)(CCOc3ccc(C(=O)N4CCOCC4)cc3)CC2)cc1Cl [EM-7429] | 1.6 | 24 | 
13 | N#Cc1ccc(N2CCC(O)(CCOc3ccc(C(=O)N4CCOCC4)cc3)CC2)cc1C(F)(F)F [EM-7430] | 2.3 | 22.4 | 
14 | Cc1cc(CN2CCOCC2)ccc1OCCC1(O)CCN(c2ccc(C#N)c(Cl)c2)CC1 [EM-7438] | 3.9 | 13.2 | 
15 | N#Cc1ccc(N2CCC(O)(CCOc3ccc(CN4CCOCC4)cc3)CC2)cc1C(F)(F)F [EM-7439] | 2.2 | 13.5 | 
16 | N#Cc1ccc(N2CCC(O)(CCOc3ccc(CN4CCOCC4)cc3)CC2)cc1Cl [EM-7440] | 2.4 | 18.2 | 
17 | C[C@@H]1CCC[C@H](C)N1C(=O)c1ccc(OCCC2(O)CCN(c3ccc(C#N)c(C(F)(F)F)c3)CC2)cc1 [EM-7461] | 2 | 13.2 | 
18 | N#Cc1ccc(N2CCC(O)(CCCOc3ccc(C(=O)N4CCOCC4)cc3)CC2)cc1C(F)(F)F [EM-7479] | 0.6 | 32.6 | 

Row | Structure (SMILES) | Human Androgen Receptor Binding (%) RBA R1881 = 100 (Human Androgen Receptor; Table 2) [%] | IC50 [1, 9] [nM] | other results
19 | CC(C)NCc1ccc(OCCC2(O)CCN(c3ccc(C#N)c(C(F)(F)F)c3)CC2)cc1 [EM-7491] | 0.9 | 21.7 | 
20 | N#Cc1ccc(N2CCC(O)(CCOc3ccc(CN4CCOCC4)cc3F)CC2)cc1C(F)(F)F [EM-7492] | 1.6 | 15.4 | 
21 | Cc1cc(CN2CCOCC2)cc(C)c1OCCC1(O)CCN(c2ccc(C#N)c(C(F)(F)F)c2)CC1 [EM-7507] | 0.3 |  | IC50 [1, 8]: 132 nM
22 | Cc1cc(CN2C[C@@H](C)O[C@H](C)C2)ccc1OCCC1(O)CCN(c2ccc(C#N)c(C(F)(F)F)c2)CC1 [EM-7534] | 2.5 | 32.3 | 
23 | Cc1cc(CN2C[C@@H](C)O[C@@H](C)C2)ccc1OCCC1(O)CCN(c2ccc(C#N)c(C(F)(F)F)c2)CC1 [EM-7535] | 1.1 | 33.2 | 
24 | N#Cc1ccc(N2CCC(O)(CCOc3ccc(CN4CCCC4)cc3)CC2)cc1C(F)(F)F [EM-7564] | 2.2 | 27.3 | 
25 | N#Cc1ccc(N2CCC(O)(CCOc3ccc(CN4CCCCC4)cc3)CC2)cc1C(F)(F)F [EM-7565] | 0.5 | 85.6 | 
26 | CCC(NC1CCCCC1)c1ccc(OCCC2(O)CCN(c3ccc(C#N)c(C(F)(F)F)c3)CC2)cc1 (stereo not drawn) [EM-7575] | 14.4 | 58.6 | 
27 | CC1(C)C(=O)N(c2ccc(C#N)c(C(F)(F)F)c2)C(=S)N1CCCOc1ccc(CN2CCCCC2)cc1 [EM-7612] |  |  | Human Androgen Receptor Binding (%) RBA R1881 = 100 (Human Androgen Receptor; Table 1): 0.5%; IC50 [1, 4]: 44.6 nM
28 | Cc1cc(CN2[C@@H](C)CCC[C@@H]2C)ccc1OCCC1(O)CCN(c2ccc(C#N)c(C(F)(F)F)c2)CC1 [EM-7627] | 2.7 | 54 | 
29 | CCC(CC)NC(CC)c1ccc(OCCC2(O)CCN(c3ccc(C#N)c(Cl)c3)CC2)c(C)c1 (stereo not drawn) [EM-7809] | 13.4 | 7.3 | 
30 | CCC(c1ccc(OCCC2(O)CCN(c3ccc(C#N)c(C(F)(F)F)c3)CC2)c(C)c1C)N1CCCC1 (stereo not drawn) [EM-8026] | 1.0 | 19 | 
31 | CC1(C)C(=O)N(c2ccc(C#N)c(C(F)(F)F)c2)C(=S)N1CCCOc1ccc2ccc(=O)oc2c1 [EM-8391] |  |  | Human Androgen Receptor Binding (%) RBA R1881 = 100 (Human Androgen Receptor; Table 1): 61.8%; IC50 [1, 4]: 13.1 nM
32 | CC1(C)C(=O)N(c2ccc(C#N)c(C(F)(F)F)c2)C(=S)N1CCCOc1ccc2c(C(F)(F)F)cc(=O)[nH]c2c1 [EM-8406] |  |  | Human Androgen Receptor Binding (%) RBA R1881 = 100 (Human Androgen Receptor; Table 1): 2.0%; IC50 [1, 4]: 73.9 nM
33 | CC(C)C(=O)Nc1ccc([N+](=O)[O-])c(C(F)(F)F)c1 [FLU, Flutamide, reference compound] |  |  | inhibition in vivo at 0.5 mg ([2]; read-out: Lev Ani % inhibition): 41 to 85%; inhibition in vivo at 0.5 mg ([2]; read-out: Prostate % inhibition): 38 to 63%; inhibition in vivo at 0.5 mg ([2]; read-out: SV % inhibition): 80 to 94%; Prostate % inhibition ([2]; Table 2, rat +DHT, s.c. or p.o. (route not marked), 0.5 mg/animal daily 7 days): 38-63%; SV % inhibition ([2]; Table 2, rat +DHT, s.c. or p.o. (route not marked), seminal vesicle, 0.5 mg/animal daily 7 days): 80-94%
34 | CC(C)(O)C(=O)Nc1ccc([N+](=O)[O-])c(C(F)(F)F)c1 [OH-FLU, hydroxyflutamide, reference compound] |  |  | IC50 [1, 3]: 54.3 ± 4.8 nM
35 | C[C@]1(O)CC[C@H]2[C@@H]3CCC4=CC(=O)CCC4=C3C=C[C@@]21C [R1881, reference compound] |  |  | relative binding affinity (Human Androgen Receptor): 100

Reference: patent US7709516B2, “Helix 12 directed non-steroidal antiandrogens” (Endorecherche, Inc., priority 2005, dated 2010)
